ChEMBL document CHEMBL1155071, “Discovery of novel 1,2,3,4-tetrahydroisoquinolines and 3,4-dihydroisoquinoline-1(2H)-ones as potent and selective inhibitors of KDR: synthesis, SAR, and pharmacokinetic properties” (Bioorg Med Chem Lett, 2008)
≈ marks a conversion by molar mass, not a printed value.

Columns and labels:
[1] = tested on: HUVEC; assay: Antiproliferative activity against FGF-induced HUVEC; type: functional, cell-based; conditions: Homo sapiens
[2] = target: Vascular endothelial growth factor receptor 2 (Homo sapiens, UniProt P35968); assay: Inhibition of KDR
[3] = Aqueous solubility in simulated intestinal fluid at pH 6.8; type: physicochemical
[4] = tested on: HUVEC; assay: Antiproliferative activity against VEGF-induced HUVEC; type: functional, cell-based; conditions: Homo sapiens

Chain of Vascular endothelial growth factor receptor 2 (P35968 whole entry): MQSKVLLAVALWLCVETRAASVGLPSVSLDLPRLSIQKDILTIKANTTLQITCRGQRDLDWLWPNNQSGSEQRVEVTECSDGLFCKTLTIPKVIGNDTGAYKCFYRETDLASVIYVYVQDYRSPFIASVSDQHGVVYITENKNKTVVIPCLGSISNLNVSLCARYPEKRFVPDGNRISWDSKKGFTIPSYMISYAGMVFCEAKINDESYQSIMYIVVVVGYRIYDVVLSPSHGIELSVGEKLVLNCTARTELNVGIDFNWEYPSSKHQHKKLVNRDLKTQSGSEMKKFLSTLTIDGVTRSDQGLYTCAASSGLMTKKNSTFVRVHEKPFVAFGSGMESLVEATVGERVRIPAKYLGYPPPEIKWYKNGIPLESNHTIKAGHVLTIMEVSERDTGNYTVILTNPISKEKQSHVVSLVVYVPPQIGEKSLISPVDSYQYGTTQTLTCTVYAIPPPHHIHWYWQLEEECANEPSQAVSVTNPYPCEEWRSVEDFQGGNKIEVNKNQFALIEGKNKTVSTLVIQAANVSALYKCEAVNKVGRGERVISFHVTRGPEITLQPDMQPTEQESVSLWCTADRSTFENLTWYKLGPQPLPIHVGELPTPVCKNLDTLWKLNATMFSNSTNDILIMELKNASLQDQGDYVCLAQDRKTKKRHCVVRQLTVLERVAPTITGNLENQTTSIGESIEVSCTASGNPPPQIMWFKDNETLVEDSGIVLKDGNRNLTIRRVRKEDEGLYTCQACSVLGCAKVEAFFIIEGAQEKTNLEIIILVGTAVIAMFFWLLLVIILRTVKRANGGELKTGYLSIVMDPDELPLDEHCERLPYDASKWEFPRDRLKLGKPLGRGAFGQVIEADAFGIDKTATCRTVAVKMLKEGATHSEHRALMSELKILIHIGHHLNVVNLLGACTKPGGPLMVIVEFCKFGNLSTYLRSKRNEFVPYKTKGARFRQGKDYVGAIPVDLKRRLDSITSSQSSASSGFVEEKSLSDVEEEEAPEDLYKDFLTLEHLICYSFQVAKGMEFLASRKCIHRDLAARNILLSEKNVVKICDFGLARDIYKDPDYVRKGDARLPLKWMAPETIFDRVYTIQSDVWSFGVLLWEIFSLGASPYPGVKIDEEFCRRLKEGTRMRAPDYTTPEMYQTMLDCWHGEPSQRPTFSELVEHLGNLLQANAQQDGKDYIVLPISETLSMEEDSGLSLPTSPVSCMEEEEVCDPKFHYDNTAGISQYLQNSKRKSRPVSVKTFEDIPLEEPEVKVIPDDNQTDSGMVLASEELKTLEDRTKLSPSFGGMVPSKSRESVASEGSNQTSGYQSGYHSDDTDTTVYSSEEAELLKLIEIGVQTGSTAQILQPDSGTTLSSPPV

Structure (SMILES) | IC50 [2] [µM] | solubility [3] [µg/mL] | IC50 [1] [µM] | IC50 [4] [µM]
COc1cc2nccc(Oc3ccc4c(C(=O)Nc5ccc(Cl)cc5)cccc4c3)c2cc1OC | – | – | > 1.14 | –
COc1cc2nccc(CN3CCc4c(cccc4C(=O)Nc4ccc(Cl)cc4)C3)c2cc1OC | 0.165 | 12 (≈ 24.6 µM) | – | –
COc1cc2nccc(CN3CCc4c(C(=O)Nc5ccc(Cl)c(C(F)(F)F)c5)cccc4C3=O)c2cc1OC | 0.003 | 24 (≈ 42.1 µM) | > 1.14 | 0.022

The next lines start with results.

IC50 [2] [µM] | solubility [3] [µg/mL] | Structure (SMILES) | IC50 [1] [µM] | IC50 [4] [µM]
0.001 | 34 (≈ 66.7 µM) | COc1cc2nccc(CN3CCc4c(cccc4C(=O)Nc4ccc(C(C)(C)C)cc4)C3)c2cc1OC | > 1.14 | 0.006
3 | > 200 | COCCNC(=O)c1cccc2c1CCN(Cc1ccnc3cc(OC)c(OC)cc13)C2 | – | –
